{
  "source": "patent US8431698B2",
  "about": "“Bioluminescent endoscopy methods and compounds” (BioLume Inc., priority 2007, dated 2013)",
  "key": {"[1]": {"test": "Rat bioluminescence imaging after coelenterazine and Renilla luciferase via bilateral jugular cannulas", "assay_type": "in vivo", "conditions": "coelenterazine 50 mM in Hank's balanced salt solution in one jugular cannula, Renilla luciferase 5 mg/ml in the opposite", "procedure": "(§1) A rat was equipped with bilateral jugular cannulas. To one was applied a solution of coelenterazine (50 mM) in Hank's balanced salt solution and to the opposite jugular cannula was administered Renilla luciferase, 5 mg/ml in Hank's balanced slat solution. An image was obtained and was pseudocoloured with Scion Image according to the light level obtained by a Princeton Instruments camera and is shown at FIG. 19.\nas §1, with “20.” for “19.”\nas §1, with “21.” for “19.”"}, "[2]": {"biological_target": "T1, Renilla luciferase (Renilla reniformis, UniProt P27652)", "T1 construct": "made in house", "T1 sequence (P27652 1-311)": "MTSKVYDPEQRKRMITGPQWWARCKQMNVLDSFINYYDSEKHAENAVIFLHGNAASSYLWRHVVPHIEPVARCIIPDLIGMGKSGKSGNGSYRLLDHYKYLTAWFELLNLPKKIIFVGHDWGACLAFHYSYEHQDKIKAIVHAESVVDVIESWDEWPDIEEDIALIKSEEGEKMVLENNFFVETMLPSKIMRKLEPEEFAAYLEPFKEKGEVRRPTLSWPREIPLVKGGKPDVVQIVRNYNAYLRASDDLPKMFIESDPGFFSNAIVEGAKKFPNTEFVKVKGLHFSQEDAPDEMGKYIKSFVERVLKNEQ", "test": "Visible glow of coelenterazine with crude extract of bacteria expressing Renilla luciferase in assay buffer", "assay_type": "biochemical", "conditions": "about 0.005 mg coelenterazine, about 0.25 ml crude extract, 100 ml assay buffer", "procedure": "In certain embodiments herein, about 1 to 10 mg, or preferably 2-5 mg, more preferably about 3 mg of coelenterazine will be used with about 100 mg of Renilla luciferase. The precise amounts, of course can be determined empirically, and, also will depend to some extent on the ultimate concentration and application."}, "[3]": {"system": "aequorin photoprotein luciferase or luciferase from Renilla", "test": "Duration of glow of luciferin in water after adding luciferase in presence of Ca++", "assay_type": "biochemical", "conditions": "5 mg luciferin in one liter of water, about 10 mgs luciferase, Ca++ present; depends on water temperature", "procedure": "Thus, for example, 5 mg of luciferin, such as coelenterazine, in one liter of water will glow brightly for at least about 10 to 20 minutes, depending on the temperature of the water, when about 10 mgs of luciferase, such as aequorin photoprotein luciferase or luciferase from Renilla, is added thereto in presence of Ca^++. Increasing the concentration of luciferase, for example, to 100 mg/L, provides a particularly brilliant light display."}},
  "data": [
    {"smiles": "Oc1ccc(Cc2nc3c(Cc4ccccc4)nc(-c4ccc(O)cc4)cn3c2O)cc1", "note": "[coelenterazine]", "values": [
      {"measurement": "bioluminescence image, liver (FIG. 20)", "setting": "[1]", "value": "patchy contrast regions in the liver"},
      {"measurement": "bioluminescence image, whole animal (FIG. 21)", "setting": "[1]", "value": "perfusion of bioluminescence in the whole animal"},
      {"measurement": "glow produced", "setting": "[2]", "value": "sufficient to produce a visible and lasting glow"},
      {"measurement": "time of bright glow", "setting": "[3]", "value": "10 to 20", "unit": "min"}
    ]}
  ]
}
